Key:
S. aureus DSM 20231 = assay: fitness (endpoint OD595 vs no drug) (fraction); higher = more growth
Method in brief: (§1)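 Fitness was measured as bacterial growth in 384-well plates inoculated at OD595 0.01 (30 µl, or 55 µl for S. pneumoniae). Media were TSB, LB Lennox or CY, at 37 °C. OD595 was read every 30 min for 14 h and background-subtracted against the first reading. Fitness is OD595 at the transition into stationary phase divided by the robust mean of no-drug control wells, capped at 1.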

S. pneumoniae D39V = assay: as above
Method in brief: as §1
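Further: OD595 on entry to stationary phase over no-drug wells; at most 1.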

CC(=O)Oc1ccccc1C(=O)O [Acetylsalicylic acid] + CO[C@@]12[C@H](COC(N)=O)C3=C(C(=O)C(C)=C(N)C3=O)N1C[C@@H]1N[C@@H]12 [Mitomycin C]
fitness
Settings | first compound 250 µg/mL | first compound 500 µg/mL | first compound 1000 µg/mL
S. aureus DSM 20231, partner 0.0156 µg/mL | 0.731 | 0.612 | 0.446
S. aureus DSM 20231, partner 0.0312 µg/mL | 0.674 | 0.579 | –
S. aureus DSM 20231, partner 0.0625 µg/mL | 0.559 | 0.483 | –
S. pneumoniae D39V, partner 0.001075 µg/mL | ≥ 1 | ≥ 1 | ≥ 1
S. pneumoniae D39V, partner 0.002 µg/mL | 0.703 | 0.673 | 0.416
S. pneumoniae D39V, partner 0.00215 µg/mL | 0.888 | 0.904 | 0.868
S. pneumoniae D39V, partner 0.004 µg/mL | 0.733 | 0.657 | 0.426
S. pneumoniae D39V, partner 0.0043 µg/mL | 0.8 | 0.811 | 0.774
S. pneumoniae D39V, partner 0.008 µg/mL | 0.548 | 0.454 | 0.335

CC(=O)Oc1ccccc1C(=O)O [Acetylsalicylic acid] + Cc1onc(-c2ccccc2)c1C(=O)N[C@@H]1C(=O)N2[C@@H]1SC(C)(C)[C@@H]2C(=O)O [Oxacillin]
fitness
Settings | first compound 250 µg/mL | first compound 500 µg/mL | first compound 1000 µg/mL
S. aureus DSM 20231, partner 0.0156 µg/mL | 0.763 | 0.656 | 0.561
S. aureus DSM 20231, partner 0.0312 µg/mL | 0.583 | 0.548 | 0.519
S. aureus DSM 20231, partner 0.0625 µg/mL | 0.494 | 0.508 | 0.393
S. pneumoniae D39V, partner 0.005 µg/mL | 0.987 | 0.959 | 0.921
S. pneumoniae D39V, partner 0.01 µg/mL | 0.969 | 0.984 | –
S. pneumoniae D39V, partner 0.02 µg/mL | 0.886 | 0.91 | –
S. pneumoniae D39V, partner 0.04 µg/mL | 0.501 | 0.643 | –

CC(=O)Oc1ccccc1C(=O)O [Acetylsalicylic acid] + CCCCCCCCCC(=O)N[C@@H]1[C@H]([C@@H]([C@H](O[C@H]1OC2=C3C=C4C=C2OC5=C(C=C(C=C5)[C@H]([C@H]6C(=O)N[C@@H](C7=C(C(=CC(=C7)O)OC8[C@H]([C@H]([C@@H]([C@H](O8)CO)O)O)O)C9=C(C=CC(=C9)[C@H](C(=O)N6)NC(=O)[C@@H]4NC(=O)[C@@H]1C2=CC(=CC(=C2)OC2=C(C=CC(=C2)[C@H](C(=O)N[C@H](CC2=CC(=C(O3)C=C2)Cl)C(=O)N1)N)O)O)O)C(=O)O)O[C@H]1[C@@H]([C@H]([C@@H]([C@H](O1)CO)O)O)NC(=O)C)Cl)CO)O)O [Teicoplanin]
fitness, S. aureus DSM 20231, main component drawn
Settings | partner 0.1562 µg/mL | partner 0.3125 µg/mL | partner 0.625 µg/mL
first compound 250 µg/mL | 0.957 | 0.98 | 0.979
first compound 500 µg/mL | 0.887 | 0.894 | 0.871

CC(=O)Oc1ccccc1C(=O)O [Acetylsalicylic acid] + COc1c(N2C[C@@H]3CCCN[C@@H]3C2)c(F)cc2c(=O)c(C(=O)O)cn(C3CC3)c12 [Moxifloxacin]
fitness
Settings | first compound 250 µg/mL | first compound 500 µg/mL | first compound 1000 µg/mL
S. aureus DSM 20231, partner 0.0075 µg/mL | 0.799 | 0.703 | 0.577
S. aureus DSM 20231, partner 0.015 µg/mL | 0.7 | 0.656 | 0.58
S. aureus DSM 20231, partner 0.03 µg/mL | 0.649 | 0.623 | 0.578
S. pneumoniae D39V, partner 0.005 µg/mL | 0.975 | 0.96 | –
S. pneumoniae D39V, partner 0.01 µg/mL | 0.98 | 0.987 | 0.812
S. pneumoniae D39V, partner 0.02 µg/mL | 0.932 | 0.94 | 0.829
S. pneumoniae D39V, partner 0.0312 µg/mL | 0.188 | 0.192 | 0.216
S. pneumoniae D39V, partner 0.0625 µg/mL | 0.17 | 0.142 | 0.137
S. pneumoniae D39V, partner 0.125 µg/mL | 0.0443 | 0.0397 | 0.0308

fitness, S. aureus DSM 20231, one replicate
Settings | first compound 250 µg/mL | first compound 500 µg/mL | first compound 1000 µg/mL
partner 0.06 µg/mL | 0.647 | 0.627 | 0.584
partner 0.12 µg/mL | 0.532 | 0.536 | 0.529

CC(=O)Oc1ccccc1C(=O)O [Acetylsalicylic acid] + Cn1nnc(-c2ccc(-c3ccc(N4C[C@H](CO)OC4=O)cc3F)cn2)n1 [Tedizolid]
fitness
Settings | partner 0.03125 µg/mL | partner 0.0625 µg/mL | partner 0.125 µg/mL | partner 0.25 µg/mL | partner 0.5 µg/mL
S. aureus DSM 20231, first compound 250 µg/mL | – | 0.839 | 0.778 | 0.403 | –
S. aureus DSM 20231, first compound 500 µg/mL | – | – | – | 0.327 | –
S. aureus DSM 20231, first compound 1000 µg/mL | – | – | – | 0.128 | –
S. pneumoniae D39V, first compound 250 µg/mL | 0.968 | 0.989 | 0.864 | 0.534 | 0.208
S. pneumoniae D39V, first compound 500 µg/mL | 0.989 | 0.986 | 0.789 | 0.472 | 0.175
S. pneumoniae D39V, first compound 1000 µg/mL | 0.966 | 0.962 | 0.728 | 0.385 | 0.16

CC(=O)Oc1ccccc1C(=O)O [Acetylsalicylic acid] + COc1cccc2c1C(=O)c1c(O)c3c(c(O)c1C2=O)C[C@@](O)(C(=O)CO)C[C@@H]3O[C@H]1C[C@H](N)[C@H](O)[C@H](C)O1 [Doxorubicin]
fitness
Settings | first compound 250 µg/mL | first compound 500 µg/mL | first compound 1000 µg/mL
S. aureus DSM 20231, partner 0.625 µg/mL | 0.835 | 0.759 | 0.607
S. aureus DSM 20231, partner 1.25 µg/mL | 0.798 | 0.725 | –
S. aureus DSM 20231, partner 2.5 µg/mL | 0.783 | 0.71 | 0.586
S. pneumoniae D39V, partner 0.25 µg/mL | 0.94 | 0.893 | 0.724
S. pneumoniae D39V, partner 0.5 µg/mL | 0.945 | 0.904 | 0.751
S. pneumoniae D39V, partner 1 µg/mL | 0.889 | 0.882 | 0.763

CC(=O)Oc1ccccc1C(=O)O [Acetylsalicylic acid] + C[n+]1ccc(-c2cc[n+](C)cc2)cc1 [Paraquat]
fitness
Settings | partner 1.25 µg/mL | partner 1.5 µg/mL | partner 2.5 µg/mL | partner 3 µg/mL | partner 5 µg/mL | partner 6 µg/mL
S. aureus DSM 20231, first compound 250 µg/mL | 0.877 | – | 0.868 | – | 0.861 | –
S. aureus DSM 20231, first compound 500 µg/mL | 0.823 | – | 0.807 | – | 0.774 | –
S. pneumoniae D39V, first compound 250 µg/mL | – | 0.972 | – | 0.954 | – | 0.934
S. pneumoniae D39V, first compound 500 µg/mL | – | 0.969 | – | 0.938 | – | 0.872
S. pneumoniae D39V, first compound 1000 µg/mL | – | 0.916 | – | 0.873 | – | 0.772

CC(=O)Oc1ccccc1C(=O)O [Acetylsalicylic acid] + CN(N=O)C(=O)N[C@@H](C=O)[C@@H](O)[C@H](O)[C@H](O)CO [Streptozotocin]
fitness
Settings | first compound 250 µg/mL | first compound 500 µg/mL | first compound 1000 µg/mL
S. aureus DSM 20231, partner 0.15 µg/mL | 0.778 | 0.635 | –
S. aureus DSM 20231, partner 0.3 µg/mL | 0.771 | 0.584 | 0.484
S. aureus DSM 20231, partner 0.6 µg/mL | 0.64 | 0.578 | 0.414
S. pneumoniae D39V, partner 1.2 µg/mL | 0.933 | 0.91 | –
S. pneumoniae D39V, partner 2.4 µg/mL | 0.934 | 0.9 | –
S. pneumoniae D39V, partner 4.8 µg/mL | 0.933 | 0.824 | –

CC(=O)Oc1ccccc1C(=O)O [Acetylsalicylic acid] + COc1ccc(C[C@H](N)C(=O)N[C@H]2[C@@H](O)[C@H](n3cnc4c(N(C)C)ncnc43)O[C@@H]2CO)cc1 [Puromycin]
fitness
Settings | partner 0.39 µg/mL | partner 0.78 µg/mL | partner 1 µg/mL | partner 1.56 µg/mL | partner 2 µg/mL | partner 4 µg/mL
S. aureus DSM 20231, first compound 250 µg/mL | 0.894 | 0.947 | – | 0.88 | – | –
S. aureus DSM 20231, first compound 500 µg/mL | 0.804 | 0.768 | – | 0.799 | – | –
S. pneumoniae D39V, first compound 250 µg/mL | – | – | ≥ 1 | – | 0.954 | 0.898
S. pneumoniae D39V, first compound 500 µg/mL | – | – | 0.915 | – | 0.935 | 0.836
S. pneumoniae D39V, first compound 1000 µg/mL | – | – | 0.889 | – | 0.815 | 0.622

fitness, S. aureus DSM 20231, one replicate
Settings | first compound 250 µg/mL | first compound 500 µg/mL | first compound 1000 µg/mL
partner 3.12 µg/mL | 0.84 | 0.791 | 0.0591
partner 6.24 µg/mL | 0.821 | 0.767 | 0.0807
